One test deals with KRAS G12D (Homo sapiens, UniProt P01116, G12D). Description: SOS-catalyzed nucleotide exchange assay, KRAS G12D (Procedure A). The test is classed as biochemical. To be noted: guanine nucleotide exchange (GNE). An outline of the steps:
(§1)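 Preformed TR-FRET complex of biotinylated KRAS (G12C carries C51S/C80L/C118S; others native sequence), Bodipy-GDP and Tb-streptavidin preincubated with compound 60 min at room temperature. Exchange started with human SOS plus 3 mM GTP for 60 min (G13D 30 min). Final RAS/SOS: G12C 3/40 nM; WT, G12D 1/40 nM; G13D 1.25/0 nM. 520/495 nm ratio normalised, fitted to four-parameter logistic.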

Another test deals with KRAS WT (Homo sapiens, UniProt P01116). The test is described as follows: SOS-catalyzed nucleotide exchange assay, KRAS WT (Procedure A). The test is classed as biochemical. The note with it: GNE. In outline: as §1
Sequence of KRAS WT (P01116 with tags, fused parts or gaps isoform P01116-2): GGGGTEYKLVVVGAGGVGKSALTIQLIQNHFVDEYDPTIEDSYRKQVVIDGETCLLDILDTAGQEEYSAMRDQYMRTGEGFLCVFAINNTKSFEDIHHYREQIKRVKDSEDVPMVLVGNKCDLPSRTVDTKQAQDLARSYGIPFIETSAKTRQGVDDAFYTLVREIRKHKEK
A further test addresses KRAS G12C (Homo sapiens, UniProt P01116, C118S/C51S/C80L/G12C). Description: SOS-catalyzed nucleotide exchange assay, KRAS G12C (Procedure A). Format: biochemical. To be noted: GNE. From the text:
(§2) Procedure for SOS-Catalyzed Nucleotide Exchange Assay for KRAS-WT, G12C/D/V, G13D, HRAS, and NRAS (Procedure A)
(§3) Recombinant KRAS-G12C protein used in this assay has an additional triple mutation (C51S/C80L/C118S). Whereas KRAS-WT, G12D/V, G13D, HRAS and NRAS are in context of their WT protein sequence background. Specifically, the SOS-catalyzed nucleotide exchange assay utilizes a preformed TR-FRET complex containing a specific biotinylated RAS protein (KRAS-WT, G12C/V/D, G13D, HRAS, NRAS; described above) with Bodipy-GDP, and Terbium-streptavidin. Compounds are preincubated with this complex for 60 minutes. Subsequently, recombinant human SOS protein and unlabeled GTP are added to initiate the exchange reaction. Small molecule inhibitors stabilize the Bodipy-GDP complex whereas the untreated protein rapidly exchanges Bodipy-GDP for unlabeled GTP resulting in reduced TR-FRET signal.
(§4) To assemble the preformed TR-FRET complexes, each biotinylated RAS protein is diluted to 2 μM in an EDTA Buffer (20 mM HEPES pH 7.5, 50 mM sodium chloride, 10 mM EDTA, and 0.01% Tween) and incubated at room temperature for one hour. This mixture is then further diluted to 90 nM in an Assay Buffer (20 mM HEPES pH 7.5, 150 mM sodium chloride, 10 mM magnesium chloride, and 0.005% Tween) containing 15 nM of Terbium-Streptavidin (Invitrogen, catalog #PV3577) and 900 nM of Bodipy-GDP (Invitrogen, catalog #G22360) and incubated at room temperature for six hours. It should be noted that this preformed TR-FRET complex for each of the RAS protein were made ahead of time, aliquoted and stored at −80° C. until the day of the experiment.
(§5) Each test compound (10 mM stock in DMSO) is diluted in DMSO to make a final-10-point, 3-fold dilution and is acoustically dispensed into a 384-well assay plate (Corning, catalog #3820) using an Echo 550 (Labcyte). Each well of the assay plate receives 3 μL of a specific 3×RAS preformed TR-FRET complex and 3 μL of Assay Buffer and is incubated at room temperature for 60 minutes (preincubation time). Each well then receives 3 μL of 3× recombinant human SOS protein and GTP (Sigma, G8877) in Assay Buffer and is incubated at room temperature for 30 minutes (G13D), 60 minutes (KRAS WT/G12C/D, H/NRAS) or 90 minutes for G12V. The final reaction in each well of 9 μL consists of 3 mM GTP, specific Ras and SOS proteins in the following concentrations: KRAS-G12C/SOS=3 nM/40 nM, KRAS-WT and G12D/SOS=1 nM/40 nM, KRAS-G12V/SOS=1.25 nM/160 nM, KRAS-G13D/SOS=1.25 nM/0 nM, HRAS and NRAS=1.25 nM/40 nM.
(§6) The time-resolved fluorescence resonance energy transfer (TR-FRET) signal is measured on an Envision (PerkinElmer) plate reader: Excitation filter=340 nm; emission1=495 nm; emission2=520 nm; dichroic mirror=D400/D505; delay time=[…]. The signal of each well is determined as the ratio of the emission at 520 nm to that at 495 nm. Percent effect of each well is determined after normalization to control wells containing DMSO (no effect) or a saturating concentration of inhibitor (max effect). The apparent effect as a function of compound concentration is fit to a four-parameter logistic equation.
(§7) For Example No. 14, nucleotide exchange assays for KRAS G12D, WT, G12C, and G12V were performed according to Procedure B. All the other compounds were tested according to Procedure A.

In another test the target is KRAS G12V (Homo sapiens, UniProt P01116, G12V). Description: SOS-catalyzed nucleotide exchange assay, KRAS G12V (Procedure A). To be noted: GNE. Format: biochemical. An outline of the steps:
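Biotinylated KRAS G12V was loaded with Bodipy-GDP alongside Terbium-streptavidin to form a TR-FRET complex, which was preincubated with compounds for 60 minutes in 384-well plates. Human SOS protein and unlabeled GTP were then added for 90 minutes, giving final concentrations of 1.25 nM KRAS-G12V, 160 nM SOS and 3 mM GTP. The 520/495 nm emission ratio was read on an Envision.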

In the next test the target is KRAS G13D (Homo sapiens, UniProt P01116, G13D). The test is described as follows: SOS-catalyzed nucleotide exchange assay, KRAS G13D (Procedure A). Format: biochemical. To be noted: GNE.
Sequence of KRAS G13D (P01116 with tags, fused parts or gaps isoform P01116-2 G13D): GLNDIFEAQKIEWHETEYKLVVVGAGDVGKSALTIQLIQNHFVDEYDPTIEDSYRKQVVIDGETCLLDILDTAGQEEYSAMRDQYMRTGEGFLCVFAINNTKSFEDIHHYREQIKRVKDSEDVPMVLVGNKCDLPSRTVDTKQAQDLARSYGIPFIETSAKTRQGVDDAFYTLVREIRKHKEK
Excerpt: as §2, §3, §4, §5, §6, §7

Another test deals with HRAS (Homo sapiens, UniProt P01112). Description: SOS-catalyzed nucleotide exchange assay, HRAS (Procedure A). Format: biochemical. To be noted: GNE.
Sequence of HRAS (P01112 with tags, fused parts or gaps): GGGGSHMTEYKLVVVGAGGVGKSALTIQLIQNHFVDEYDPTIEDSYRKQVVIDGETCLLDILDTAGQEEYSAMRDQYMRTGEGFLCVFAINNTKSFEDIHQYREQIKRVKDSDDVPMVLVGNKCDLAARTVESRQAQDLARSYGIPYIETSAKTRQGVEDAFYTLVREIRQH
Excerpt: as §2, §3, §4, §5, §6, §7

For a further test, the target named is NRAS (Homo sapiens, UniProt P01111). Description: SOS-catalyzed nucleotide exchange assay, NRAS (Procedure A). Format: biochemical. The note with it: GNE.
Sequence of NRAS (P01111 with tags, fused parts or gaps): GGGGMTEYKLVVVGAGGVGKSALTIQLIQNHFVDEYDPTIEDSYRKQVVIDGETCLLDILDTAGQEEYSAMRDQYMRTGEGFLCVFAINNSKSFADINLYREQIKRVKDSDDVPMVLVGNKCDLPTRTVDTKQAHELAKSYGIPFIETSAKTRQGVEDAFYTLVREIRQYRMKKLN
Excerpt: as §2, §3, §4, §5, §6, §7

The target of the next test is T1, AsPC-1 cells (Homo sapiens, UniProt P01116, G12D).
T1 construct: p-ERK/total ERK AlphaSureFire read-out
T1 sequence (P01116 1-188 isoform P01116-2 G12D): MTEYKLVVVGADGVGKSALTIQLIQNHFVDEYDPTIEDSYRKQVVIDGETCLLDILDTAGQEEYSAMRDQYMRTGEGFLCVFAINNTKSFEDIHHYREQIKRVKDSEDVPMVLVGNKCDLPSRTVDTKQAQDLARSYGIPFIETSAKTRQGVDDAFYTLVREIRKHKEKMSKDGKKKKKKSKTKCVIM
The test is described as follows: Cellular phospho-ERK assay, AsPC-1 cells (KRAS G12D). The test is classed as cell-based. To be noted: 2 hours, read-out: AsPC1 pERK IC50. In outline: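 PANC08.13 or AsPC-1 cells (homozygous KRAS G12D) were seeded overnight, then treated for 2 h at 37 °C with a 10-point 1:3 titration from 30 μM. Lysates were assayed by AlphaLISA SureFire for p-ERK and total ERK. IC50 came from a 4-parameter fit of the p-ERK/total ERK ratio.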

Sequence of KRAS G12C (P01116 with tags, fused parts or gaps isoform P01116-2 G12C/C51S/C80L/C118S): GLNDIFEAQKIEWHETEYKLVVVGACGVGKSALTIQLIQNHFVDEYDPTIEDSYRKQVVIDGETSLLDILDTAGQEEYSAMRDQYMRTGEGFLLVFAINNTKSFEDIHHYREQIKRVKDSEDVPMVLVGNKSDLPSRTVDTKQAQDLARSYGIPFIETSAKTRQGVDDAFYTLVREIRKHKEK
Sequence of KRAS G12D (P01116 with tags, fused parts or gaps isoform P01116-2 G12D): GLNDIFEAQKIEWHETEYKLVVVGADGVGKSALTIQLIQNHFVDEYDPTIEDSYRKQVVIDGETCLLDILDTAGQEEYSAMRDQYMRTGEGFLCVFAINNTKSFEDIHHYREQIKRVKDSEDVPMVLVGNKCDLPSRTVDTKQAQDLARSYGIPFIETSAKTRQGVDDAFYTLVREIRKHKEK
Sequence of KRAS G12V (P01116 with tags, fused parts or gaps isoform P01116-2 G12V): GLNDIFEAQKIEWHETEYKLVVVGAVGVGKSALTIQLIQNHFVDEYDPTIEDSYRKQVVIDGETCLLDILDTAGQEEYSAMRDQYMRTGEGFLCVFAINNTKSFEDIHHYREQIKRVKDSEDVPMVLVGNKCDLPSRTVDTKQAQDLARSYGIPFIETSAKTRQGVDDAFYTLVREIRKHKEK

As for `Cc1cc2[nH]ncc2c(-c2nccc3c2sc2nc(OC[C@@]45CCCN4C[C@H](F)C5)nc(N4CC5COCC(C4)N5)c23)c1C(F)(F)F` [Ex-65, 7-(2-(((2R,7aS)-2-fluorotetrahydro-1H-pyrrolizin-7a(5H)-yl)methoxy)-8-(6-methyl-5-(trifluoromethyl)-1H-indazol-4-yl)pyrido[4′,3′:4,5]thieno[2,3-d]pyrimidin-4-yl)-3-oxa-7,9-diazabicyclo[3.3.1]nonane], the IC50 against KRAS G12D is 0.128 µM; against KRAS WT, 8.79 µM; against KRAS G12C, 1.96 µM; against KRAS G12V, more than 11.1 µM; against KRAS G13D, 2.74 µM; against HRAS, more than 11.1 µM. The IC50 was more than 11.1 µM against NRAS and 1.7 µM at AsPC-1 cells.
For `Cc1cc2[nH]ncc2c(-c2nccc3c2sc2nc(OC[C@@]45CCCN4C[C@H](F)C5)nc(N4C[C@H]5C[C@@H]4CN5)c23)c1C(F)(F)F` [Ex-70, 4-((1R,4R)-2,5-diazabicyclo[2.2.1]heptan-2-yl)-2-(((2R,7aS)-2-fluorotetrahydro-1H-pyrrolizin-7a(5H)-yl)methoxy)-8-(6-methyl-5-(trifluoromethyl)-1H-indazol-4-yl)pyrido[4′,3′:4,5]thieno[2,3-d]pyrimidine], the IC50 at KRAS G12D is 0.836 µM; against KRAS WT, 7.5 µM; against KRAS G12C, 0.948 µM; at KRAS G12V, 9.75 µM; against KRAS G13D, 2.26 µM; against HRAS it was more than 11.1 µM. Moreover, the IC50 is more than 11.1 µM against NRAS and 5.11 µM on AsPC-1 cells.
Regarding `Cc1cc2[nH]ncc2c(-c2nccc3c2sc2nc(OCC4(C#N)CCCO4)nc(N4C[C@H]5CC[C@@H](C4)N5)c23)c1C(F)(F)F` (stereo partly drawn) [Ex-34, 2-(((4-((1R,5S)-3,8-diazabicyclo[3.2.1]octan-3-yl)-8-(6-methyl-5-(trifluoromethyl)-1H-indazol-4-yl)pyrido[4′,3′:4,5]thieno[2,3-d]pyrimidin-2-yl)oxy)methyl)tetrahydrofuran-2-carbonitrile], the IC50 is 6.7 µM against KRAS G12D; more than 11.1 µM against KRAS WT; more than 11.1 µM against KRAS G12C; more than 11.1 µM on KRAS G12V; more than 11.1 µM against KRAS G13D; more than 11.1 µM against HRAS. The IC50 against NRAS was more than 11.1 µM; at AsPC-1 cells, more than 30 µM.
For the molecule `CC12CC(COc3nc(N4C[C@H]5CC[C@@H](C4)N5)c4c(n3)sc3c(-c5c(C6CC6)c(Cl)cc6[nH]ncc56)nccc34)(CO1)C2` [Ex-23, 4-((1R,5S)-3,8-diazabicy-clo[3.2.1]octan-3-yl)-8-(6-chloro-5-cyclopropyl-1H-indazol-4-yl)-2-(((1R,4r)-1-methyl-2-oxabicy-clo[2.1.1]hex-an-4-yl)methoxy)pyri-do[4′,3′:4,5]thi-eno[2,3-d]pyrimi-dine], the IC50 on KRAS G12D is 1.97 µM; against KRAS WT, more than 11.1 µM; against KRAS G12C, more than 11.1 µM; against KRAS G12V it was more than 11.1 µM; on KRAS G13D, more than 11.1 µM; on HRAS it was more than 11.1 µM. For the same molecule, the values for the IC50 on NRAS and on AsPC-1 cells were more than 11.1 µM and 8.11 µM, respectively.
For the molecule `Cc1cc2[nH]ncc2c(-c2nccc3c2sc2nc(OC[C@H]4C[C@H](S(C)(=N)=O)C4)nc(N4C[C@H]5CC[C@@H](C4)N5)c23)c1C(F)(F)F` (stereo partly drawn) [Ex-35, (1S)-((1R,3S)-3-(((4-((1R,5S)-3,8-diazabicyclo[3.2.1]octan-3-yl)-8-(6-methyl-5-(trifluoromethyl)-1H-indazol-4-yl)pyrido[4′,3′:4,5]thieno[2,3-d]pyrimidin-2-yl)oxy)methyl)cyclobutyl)(imino) (methyl)-λ^6-sulfanone], the half-inhibitory concentration (IC50) against KRAS G12D was 1.43 µM; on KRAS WT, more than 11.1 µM; at KRAS G12C, more than 11.1 µM; on KRAS G12V it was more than 11.1 µM; on KRAS G13D it was more than 11.1 µM; at HRAS, more than 11.1 µM. The IC50 against NRAS was more than 11.1 µM; on AsPC-1 cells it was more than 30 µM.
With `Cc1cc2[nH]ncc2c(-c2nccc3c2sc2nc(OCC4(C)CS(=O)(=O)C4)nc(N4C[C@H]5CC[C@@H](C4)N5)c23)c1C(F)(F)F` [Ex-39, 3-(((4-((1R,5S)-3,8-diazabicyclo[3.2.1]octan-3-yl)-8-(6-methyl-5-(trifluoromethyl)-1H-indazol-4-yl)pyrido[4′,3′:4,5]thieno[2,3-d]pyrimidin-2-yl)oxy)methyl)-3-methylthietane 1,1-dioxide], the IC50 against KRAS G12D is 2.42 µM; against KRAS WT, more than 11.1 µM; on KRAS G12C, more than 11.1 µM; against KRAS G12V, more than 11.1 µM; against KRAS G13D, more than 11.1 µM; at HRAS, more than 11.1 µM. In addition, the half-maximal inhibitory concentration (IC50) is more than 11.1 µM at NRAS and 12.8 µM at AsPC-1 cells.
With `Cc1cc2[nH]ncc2c(-c2nccc3c2sc2nc(OC[C@@]45CCCN4C[C@H](F)C5)nc(N4[C@@H]5CC[C@H]4CN(C)C5)c23)c1C(F)(F)F` [Ex-73, 2-(((2R,7aS)-2-fluorotetrahydro-1H-pyrrolizin-7a(5H)-yl)methoxy)-8-(6-methyl-5-(trifluoromethyl)-1H-indazol-4-yl)-4-((1R,5S)-3-methyl-3,8-diazabicyclo[3.2.1]octan-8-yl)pyrido[4′,3′:4,5]thieno[2,3-d]pyrimidine], the half-inhibitory concentration (IC50) on KRAS G12D was 1.39 µM; against KRAS WT, more than 11.1 µM; on KRAS G12C it was more than 11.1 µM; on KRAS G12V, more than 11.1 µM; against KRAS G13D, more than 11.1 µM; at HRAS, more than 11.1 µM. For the same molecule, the half-maximal inhibitory concentration (IC50) was more than 11.1 µM against NRAS and 4.79 µM on AsPC-1 cells.
As to `Cc1cc2[nH]ncc2c(-c2nccc3c2sc2nc(OCC4CCS(=O)(=O)CC4)nc(N4C[C@H]5CC[C@@H](C4)N5)c23)c1C(F)(F)F` [Ex-36, 4-(((4-((1R,5S)-3,8-diazabicyclo[3.2.1]octan-3-yl)-8-(6-methy1-5-(trifluoromethyl)-1H-indazol-4-yl)pyrido[4′,3′:4,5]thieno[2,3-d]pyrimidin-2-yl)oxy)methyl)tetrahydro-2H-thiopyran 1,1-dioxide], the IC50 against KRAS G12D is 4.12 µM; against KRAS WT it was more than 11.1 µM; at KRAS G12C, more than 11.1 µM; against KRAS G12V it was more than 11.1 µM; against KRAS G13D it was more than 11.1 µM; at HRAS, more than 11.1 µM. For the same molecule, the results for the IC50 against NRAS and on AsPC-1 cells were more than 11.1 µM and 28.4 µM, respectively.

The values are drawn from patent US20260347372A1, “SMALL MOLECULE INHIBITORS OF KRAS G12D MUTANT” (MERCK SHARP & DOHME LLC, priority 2023, published 2026).
